Measured values from patent US8257755B2, “Metabolic syndrome-improving agent and medicine, supplement, functional food and food additive containing the same” (ARKRAY, Inc., priority 2005, dated 2012).

What was measured:
[1] = test system: HepG2 cells (human hepatic cells); assay: Counting of the number of living cells (CellTiter 96 Aqueous One) in HepG2; type: cell-based; details: 30 hours, measurement group/control group, DMSO control = 100
Description: HepG2 was cultured to 80% to 90% confluence in a 100 mm/Collagen-Coated Dish (trade name, manufactured by Iwaki Glass Works, Co.). The medium was removed from the above-noted dish with a pipette and then HepG2 was washed with 2 mL of 1×PBS. Then, 2 mL of trypsin-EDTA was added, the above-noted dish was rotated slowly so that the trypsin-EDTA spread over the entire cells, this trypsin-EDTA was removed with a pipette, and the dish was allowed to stand still for 15 minutes in a CO2 incubator (37° C., 5%). To this dish, 12 mL of a growth medium was added, followed by mixing by pipetting, and 1 mL of this mixture solution was dispensed in each well of Collagen-Coated Microplates 12Well/Flat Bottom (trade name, manufactured by Iwaki Glass Works, Co.). After the cells were checked using a microscope, the wells were cultured in a CO2 incubator (37° C., 5%) for one to two days. After checking that 80% to 90% confluence was achieved using the microscope, a medium replacement was carried out by removing the medium and adding 800 μL of a medium containing bergamottin. […] Using this collected medium, the number of living cells were counted, and the Western blotting and the ELISA measurement were carried out similarly to the above. From the result of the ELISA, the ratio of the VLDL secretion amount between the measurement group and the non-treated control group (measurement group/control group) was calculated for each sample.
The measurement was made using CellTiter 96 Aqueous One Solution Cell Proliferation Assay (trade name, manufactured by Promega Corporation). […] 100 μL of this mixture solution was dispensed to each of three wells of ELISA PLATE 96well (trade name, manufactured by Iwaki Glass Works, Co.), and the absorbance at 490 nm was measured. The measurement was made using wallac ARVOsx (trade name, PerkinElmer Life Sciences, PerkinElmer, Inc.), and the mode of measurement was Absorbance (490 nm, 1.0 S). The ratio of the number of living cells between the measurement group and the non-treated control group (measurement group/control group) was calculated for each sample.

3T3-L1 cells = assay: mRNA expression of aP2 and adiponectin in differentiated 3T3-L1 adipocytes (Light Cycler); type: cell-based, mouse; details: 7 days after differentiation induction, non-treatment control = 100, average ± standard error
Description: Next, culture preadipocytes 3T3-L1 were thawed, inoculated in a 100 mm dish and cultured until 3T3-L1 cells reached about 80% confluence. A single dish of 3T3-L1 that had reached about 80% confluence was subcultured to a single 6-well plate and further cultured until the 3T3-L1 cells reached confluence in the 6-well plate, and then the medium was replaced with the differentiation induction medium, followed by differentiation induction. 48 hours later, the medium was replaced with the differentiation promotion medium, and thereafter, the medium was replaced with the differentiation promotion medium every two days. 7 days after the initiation of the differentiation induction, mRNA was extracted using Sepasol-RNA I Super (trade name; manufactured by Nacalai Tesque, Inc.), and the mRNA expression amounts of 36B4, aP2 and adiponectin, which were indicators of an early period of adipocyte differentiation, were measured using Light Cycler (TM). Also, the medium 7 days after the differentiation induction was taken in an amount of 1 mL from each well, and the amount of adiponectin in the medium supernatant was measured using a mouse/rat adiponectin ELISA kit (manufactured by Otsuka Pharmaceutical Co., Ltd.).
The medium was removed from the above-described 6-well plate, 1 mL of Sepasol(R)-RNA I Super (manufactured by Nacalai Tesque, Inc.) was added to each well, and pipetting was repeated several times so as to disperse the cells. This solution was transferred to a 1.5 mL tube and allowed to stand for 5 minutes at room temperature, and then 200 μL of chloroform was added, stirred well with a vortex stirrer and allowed to stand for 3 minutes at room temperature. The solution was cooled to 4° C. and centrifuged at 12000×g for 15 minutes. While taking great care not to disturb an interface between a phenol layer (a lower layer, yellow) and a water layer (an upper layer, colorless), the water layer alone was transferred to another tube (with a capacity of 1.5 mL). At this time, care was taken not to take proteins floating between these layers. 500 μL of isopropanol was added to the tube and mixed and allowed to stand for 10 minutes at room temperature. The solution was cooled to 4° C. and centrifuged at 12000×g for 10 minutes, followed by removing about 1 mL of the supernatant. To this precipitate, 1 mL of 75% ethanol was added and stirred to suspend the precipitate sufficiently, and then cooled to 4° C. and centrifuged at 12000×g for 10 minutes, followed by removing the supernatant. The resultant precipitate (total RNA) was dried and then dissolved in 20 μL of nuclease free water, thus measuring the concentration of mRNA using NanoDrop (manufactured by SCRUM Inc.).
The extracted and measured mRNA solution was adjusted to have an mRNA concentration of 1 μg/μL. […]

SMILES: CC(C)=CCC/C(C)=C/COc1c2ccoc2cc2oc(=O)ccc12 [Bergamottin, bergamottin]
- Number of living cells (%) ([1]; 10 μM): 99.6%
- Number of living cells (%) ([1]; 20 μM): 97.2%
- Number of living cells (%) ([1]; 50 μM): 99.8%
- Adiponectin mRNA expression amount (ratio to 36B4) (3T3-L1 cells; 1 μM): 189.5 ± 9.7
- aP2 mRNA expression amount (ratio to 36B4) (3T3-L1 cells; 1 μM): 157.5 ± 7.3
- Adiponectin mRNA expression amount (ratio to 36B4) (3T3-L1 cells; 5 μM): 227.2 ± 16.0
- aP2 mRNA expression amount (ratio to 36B4) (3T3-L1 cells; 5 μM): 194.6 ± 9.0
